# Source: ChEMBL document CHEMBL5260845, “Flavone-based arylamides as potential anticancers: Design, synthesis and in vitro cell-based/cell-free evaluations” (2020)
# Active and inactive are the calls of the source. No cut-off for these calls is given here.
# Assays:
# SF-539 = assay: Antiproliferative activity against human SF-539 cells assessed as cell growth inhibition at 10 uM by SRB assay relative to control; type: functional
# COLO 205 [1] = assay: Antiproliferative activity against human COLO 205 cells assessed as cell growth inhibition at 10 uM by SRB assay relative to control; type: functional
# SK-MEL-28 = assay: Antiproliferative activity against human SK-MEL-28 cells assessed as cell growth inhibition at 10 uM by SRB assay relative to control; type: functional
# OVCAR-8 = assay: Antiproliferative activity against human OVCAR-8 cells assessed as cell growth inhibition at 10 uM by SRB assay relative to control; type: functional
# COLO 205 [2] = assay: Antiproliferative activity against human COLO 205 cells assessed as cell growth inhibition at 10 uM by SRB assay; type: functional, cell-based
# MDA-MB-435 = assay: Antiproliferative activity against human MDA-MB-435 cells assessed as cell growth inhibition at 10 uM by SRB assay relative to control; type: functional
# NCI-H460 = assay: Antiproliferative activity against human NCI-H460 cells assessed as cell growth inhibition at 10 uM by SRB assay; type: functional, cell-based
# ACHN = assay: Antiproliferative activity against human ACHN cells assessed as inhibition of cell growth at 10 uM by SRB assay relative to control; type: functional; conditions: pooled result: one value given for 2 cell lines, strains, targets or settings
# EKVX = assay: Antiproliferative activity against human EKVX cells assessed as cell growth inhibition at 10 uM by SRB assay; type: functional
# HCT-15 = assay: Antiproliferative activity against human HCT-15 cells assessed as cell growth inhibition at 10 uM by SRB assay; type: functional, cell-based
# UACC-62 = assay: Antiproliferative activity against human UACC-62 cells assessed as cell growth inhibition at 10 uM by SRB assay relative to control; type: functional
# HT-29 = assay: Antiproliferative activity against human HT-29 cells assessed as cell growth inhibition at 10 uM by SRB assay; type: functional, cell-based
# NCI-H23 = assay: Antiproliferative activity against human NCI-H23 cells assessed as cell growth inhibition at 10 uM by SRB assay; type: functional
# 786-0 = assay: Antiproliferative activity against human 786-0 cells assessed as inhibition of cell growth at 10 uM by SRB assay relative to control; type: functional
# MOLT-4 = assay: Antiproliferative activity against human MOLT-4 cells assessed as cell growth inhibition at 10 uM by SRB assay; type: functional, cell-based
# SK-MEL-5 = assay: Antiproliferative activity against human SK-MEL-5 cells assessed as cell growth inhibition at 10 uM by SRB assay relative to control; type: functional
# DU-145 = assay: Antiproliferative activity against human DU-145 cells assessed as inhibition of cell growth at 10 uM by SRB assay; type: functional, cell-based
# CCRF-CEM = assay: Antiproliferative activity against human CCRF-CEM cells assessed as cell growth inhibition at 10 uM by SRB assay; type: functional, cell-based
# NCI-H226 = assay: Antiproliferative activity against human NCI-H226 cells assessed as cell growth inhibition at 10 uM by SRB assay; type: functional
# NCI-H522 [3] = assay: Antiproliferative activity against human NCI-H522 cells assessed as cell growth inhibition at 10 uM by SRB assay relative to control; type: functional
# Melanoma cell line = assay: Antiproliferative activity against human melanoma cells assessed as cell growth inhibition at 10 uM by SRB assay relative to control; type: functional
# [4] = Antiproliferative activity against human colon cancer cells assessed as cell growth inhibition at 10 uM by SRB assay relative to control; type: functional; conditions: Colon carcinoma cell
# UACC-257 = assay: Antiproliferative activity against human UACC-257 cells assessed as cell growth inhibition at 10 uM by SRB assay relative to control; type: functional
# RPMI-8226 [5] = assay: Antiproliferative activity against human RPMI-8226 cells assessed as cell growth inhibition at 10 uM by SRB assay; type: functional, cell-based
# SW-620 = assay: Antiproliferative activity against human SW620 cells assessed as cell growth inhibition at 10 uM by SRB assay; type: functional, cell-based
# HOP-62 = assay: Antiproliferative activity against human HOP-62 cells assessed as cell growth inhibition at 10 uM by SRB assay; type: functional, cell-based
# NCI-H522 [6] = assay: Antiproliferative activity against human NCI-H522 cells assessed as cell growth inhibition at 10 uM by SRB assay; type: functional, cell-based
# KM12 = assay: Antiproliferative activity against human KM12 cells assessed as cell growth inhibition at 10 uM by SRB assay; type: functional, cell-based
# CAKI-1 = assay: Antiproliferative activity against human CAKI-1 cells assessed as inhibition of cell growth at 10 uM by SRB assay relative to control; type: functional
# [7] = Antiproliferative activity against human brain cancer cells assessed as cell growth inhibition at 10 uM by SRB assay relative to control; type: functional
# Lung cancer cell line = assay: Antiproliferative activity against human lung cancer cells assessed as cell growth inhibition at 10 uM by SRB assay relative to control; type: functional
# HL-60 [8] = assay: Antiproliferative activity against human HL-60 cells assessed as cell growth inhibition at 10 uM by SRB assay relative to control; type: functional
# [9] = Antiproliferative activity against human hematologic cancer cells assessed as cell growth inhibition at 10 uM by SRB assay relative to control; type: functional
# NCI-H322M = assay: Antiproliferative activity against human NCI-H322M cells assessed as cell growth inhibition at 10 uM by SRB assay; type: functional, cell-based
# HCC 2998 = assay: Antiproliferative activity against human HCC 2998 cells assessed as cell growth inhibition at 10 uM by SRB assay; type: functional, cell-based
# OVCAR-3 = assay: Antiproliferative activity against human OVCAR-3 cells assessed as cell growth inhibition at 10 uM by SRB assay relative to control; type: functional; conditions: pooled result: one value given for 2 cell lines, strains, targets or settings
# LOX IMVI = assay: Antiproliferative activity against human LOX IMVI cells assessed as cell growth inhibition at 10 uM by SRB assay relative to control; type: functional
# Breast carcinoma cell = assay: Antiproliferative activity against human breast cancer cells assessed as cell growth inhibition at 10 uM by SRB assay relative to control; type: functional; conditions: pooled result: one value given for 3 cell lines, strains, targets or settings
# IGROV-1 = assay: Antiproliferative activity against human IGROV-1 cells assessed as cell growth inhibition at 10 uM by SRB assay relative to control; type: functional
# HCT-116 = assay: Antiproliferative activity against human HCT-116 cells assessed as cell growth inhibition at 10 uM by SRB assay; type: functional, cell-based
# U-251 = assay: Antiproliferative activity against human U-251 cells assessed as cell growth inhibition at 10 uM by SRB assay relative to control; type: functional
# SR = assay: Antiproliferative activity against human SR cells assessed as cell growth inhibition at 10 uM by SRB assay; type: functional, cell-based
# RPMI-8226 [10] = assay: Antiproliferative activity against human RPMI-8226 cells assessed as cell growth inhibition at 10 uM by SRB assay relative to control; type: functional
# HL-60 [11] = assay: Antiproliferative activity against human HL-60 cells assessed as cell growth inhibition at 10 uM by SRB assay; type: functional, cell-based
structure (smiles),measurement,setting,value
COc1cc2oc(-c3cccc(C(=O)Nc4ccc(Cl)cc4)c3)cc(=O)c2c(OC)c1OC,inhibition at 10 µM,SF-539,> 50%
same,inhibition at 10 µM,COLO 205 [1],98.3%
same,inhibition at 10 µM,SK-MEL-28,107%
same,inhibition at 10 µM,OVCAR-8,56.9%
same,inhibition,COLO 205 [2],Active
same,inhibition at 10 µM,MDA-MB-435,62.5%
same,inhibition,NCI-H460,Active
same,inhibition at 10 µM,ACHN,61.4%
same,inhibition,EKVX,Active
same,inhibition,HCT-15,Active
same,inhibition at 10 µM,UACC-62,107%
same,inhibition,HT-29,Active
same,inhibition,NCI-H23,Active
same,inhibition at 10 µM,786-0,88%
same,inhibition,MOLT-4,Active
same,inhibition at 10 µM,SK-MEL-5,107%
same,inhibition,DU-145,Active
same,inhibition,CCRF-CEM,Active
same,inhibition,NCI-H226,Active
same,inhibition at 10 µM,NCI-H522 [3],74.8%
same,inhibition at 10 µM,Melanoma cell line,102%
same,inhibition at 10 µM,[4],61.5%
same,inhibition at 10 µM,UACC-257,107%
same,inhibition,RPMI-8226 [5],Active
same,inhibition,SW-620,Active
same,inhibition,HOP-62,Active
same,inhibition,NCI-H522 [6],Active
same,inhibition,KM12,Active
same,inhibition at 10 µM,CAKI-1,91.8%
same,inhibition at 10 µM,[7],61.5%
same,inhibition at 10 µM,Lung cancer cell line,61.5%
same,inhibition at 10 µM,HL-60 [8],111%
same,inhibition at 10 µM,[9],90%
same,inhibition,NCI-H322M,Active
same,inhibition,HCC 2998,Active
same,inhibition at 10 µM,OVCAR-3,56.9%
same,inhibition at 10 µM,LOX IMVI,97.8%
same,inhibition at 10 µM,Breast carcinoma cell,61.5%
same,inhibition at 10 µM,IGROV-1,56.9%
same,inhibition,HCT-116,Active
same,inhibition at 10 µM,U-251,> 50%
same,inhibition,SR,Active
same,inhibition at 10 µM,RPMI-8226 [10],82.6%
same,inhibition,HL-60 [11],Active
COc1cc2oc(-c3cccc(C(=O)Nc4ccc(C)cc4)c3)cc(=O)c2c(OC)c1OC,inhibition at 10 µM,SF-539,> 50%
same,inhibition at 10 µM,COLO 205 [1],82%
same,inhibition at 10 µM,SK-MEL-28,92.9%
same,inhibition at 10 µM,OVCAR-8,51.8%
same,inhibition,COLO 205 [2],Active
same,inhibition at 10 µM,MDA-MB-435,70.1%
same,inhibition,NCI-H460,Active
same,inhibition at 10 µM,ACHN,55.7%
same,inhibition,EKVX,Active
same,inhibition,HCT-15,Active
same,inhibition at 10 µM,UACC-62,108%
same,inhibition,HT-29,Active
same,inhibition,NCI-H23,Active
same,inhibition at 10 µM,786-0,55.7%
same,inhibition,MOLT-4,Active
same,inhibition at 10 µM,SK-MEL-5,108%
same,inhibition,DU-145,Active
same,inhibition,CCRF-CEM,Active
same,inhibition,NCI-H226,Active
same,inhibition at 10 µM,NCI-H522 [3],93.3%
same,inhibition at 10 µM,Melanoma cell line,95.9%
same,inhibition at 10 µM,[4],72.5%
same,inhibition at 10 µM,UACC-257,70.1%
same,inhibition,RPMI-8226 [5],Active
same,inhibition,SW-620,Active
same,inhibition,HOP-62,Active
same,inhibition,NCI-H522 [6],Active
same,inhibition,KM12,Active
same,inhibition at 10 µM,CAKI-1,97.8%
same,inhibition at 10 µM,[7],64.7%
same,inhibition at 10 µM,Lung cancer cell line,66.5%
same,inhibition at 10 µM,HL-60 [8],92.7%
same,inhibition at 10 µM,[9],72.5%
same,inhibition,NCI-H322M,Active
same,inhibition,HCC 2998,Active
same,inhibition at 10 µM,OVCAR-3,51.8%
same,inhibition at 10 µM,LOX IMVI,108%
same,inhibition at 10 µM,Breast carcinoma cell,53.4%
same,inhibition at 10 µM,IGROV-1,51.8%
same,inhibition,HCT-116,Active
same,inhibition at 10 µM,U-251,> 50%
same,inhibition,SR,Active
same,inhibition at 10 µM,RPMI-8226 [10],82.6%
same,inhibition,HL-60 [11],Active
